{"source": "paper PMC8205226", "about": "“HIV-1 Integrase Inhibitors with Modifications That Affect Their Potencies against Drug Resistant Integrase Mutants” (ACS Infectious Diseases, 2021)", "format_in_all_cases": "cell-based", "key": {"HIV-1 IN mutant Y143H": {"system": "HIV-1 IN mutant Y143H", "experiment": "single-round infectivity assay, Y143H IN mutant", "protocol": "(§1) Figure 4 Mutations in the β5-α3 loop affect the antiviral potencies of the new compounds. The EC50 values were determined using a vector that carries the IN mutant in a single round infection assay. […] Error bars represent the standard deviations of independent experiments, n = 4, performed in triplicate.\n(§2) WT and mutant HIV-1 viral vectors were used in single-round infectivity assays to determine the antiviral potencies (EC50 values) of the compounds and the effects of the mutants on the EC50 values as previously described.[30],[54] Single round infectivity measurements were determined as done previously.[38]\n(§3) The vector pNLNgoMIVR-ΔENV.LUC has been described previously.[26] To produce the new IN mutants used in this study, the IN open reading frame was removed from pNLNgoMIVR-ΔENV.LUC by digestion with KpnI and SalI, and the resulting fragment was inserted between the KpnI and SalI sites of pBluescript KS+. Using that construct as the wild-type template, we prepared the following HIV-1 IN mutants using the QuikChange II XL site directed mutagenesis kit (Agilent Technologies, Santa Clara, CA) protocol: N117A, N117H, P142A, P142H, P142S, Y143C, Y143H, S230R, R231G, and R231K. The following sense oligonucleotides were used with matching cognate antisense oligonucleotides (not shown) (Integrated DNA Technologies, Coralville, IA) in the mutagenesis: N117A, 5′-[…]-3′; N117H, 5′-[…]-3′; P142A, 5′-[…]-3′; P142H, 5′-[…]-3′; P142S, 5′-[…]-3′; Y143C, 5′- […]-3′; Y143H, 5′-[…]-3′; S230R, 5′- […]-3′; R231G, 5′-[…]-3′; R231K, 5′-[…]-3′."}, "[1]": {"system": "HIV-1 IN double mutant G140S/Q148H", "experiment": "single-round infectivity assay, G140S/Q148H IN double mutant", "protocol": "(§4) Figure 2 Antiviral activities of the new compounds against RAL-resistant mutants. The EC50 values were determined using a vector that carries WT HIV-1 IN and the RAL-resistant mutants in a single round infection assay. […] Error bars represent the standard deviations of independent experiments, n = 4, performed in triplicate. The graph has a maximum value of 550 nM.\nas §2, §3"}, "HIV-1 IN mutant P142A": {"system": "HIV-1 IN mutant P142A", "experiment": "single-round infectivity assay, P142A IN mutant", "protocol": "as §1, §2, §3"}, "HIV-1 IN mutant P142S": {"system": "HIV-1 IN mutant P142S", "experiment": "single-round infectivity assay, P142S IN mutant", "protocol": "as §1, §2, §3"}, "WT HIV-1": {"system": "WT HIV-1", "experiment": "single-round infectivity assay, WT HIV-1 IN vector", "conditions": "Human immunodeficiency virus 1, read-out: EC50 values WT, vector carrying WT HIV-1 IN, single round infection, n = 4; new compounds", "protocol": "as §4, §2, §3"}, "HIV-1 IN mutant N117A": {"system": "HIV-1 IN mutant N117A", "experiment": "single-round infectivity assay, N117A IN mutant", "protocol": "(§5) The EC50 values were determined using a vector that carries the IN mutant in a single round infection assay. […] Error bars represent the standard deviations of independent experiments, n = 4, performed in triplicate.\nas §2, §3"}, "HIV-1 IN mutant R231G": {"system": "HIV-1 IN mutant R231G", "experiment": "single-round infectivity assay, R231G IN mutant", "protocol": "as §5, with “Figure 5 Antiviral potencies of the new compounds against IN with mutations in the […]. The” for “The”\nas §2, §3"}, "HIV-1 IN mutant G118R": {"system": "HIV-1 IN mutant G118R", "experiment": "single-round infectivity assay, G118R IN mutant", "protocol": "as §5, §2, §3"}, "HIV-1 IN mutant Y143C": {"system": "HIV-1 IN mutant Y143C", "experiment": "single-round infectivity assay, Y143C IN mutant", "protocol": "as §1, §2, §3"}, "HIV-1 IN mutant P142H": {"system": "HIV-1 IN mutant P142H", "experiment": "single-round infectivity assay, P142H IN mutant", "protocol": "as §5\nSingle round infectivity measurements were determined as done previously.[38]\nas §3"}, "HIV-1 IN mutant N117H": {"system": "HIV-1 IN mutant N117H", "experiment": "single-round infectivity assay, N117H IN mutant", "protocol": "as §5, §2, §3"}, "HIV-1 IN mutant N155H": {"system": "HIV-1 IN mutant N155H", "experiment": "single-round infectivity assay, N155H IN mutant", "protocol": "as §4, §2, §3"}, "HIV-1 IN mutant R231K": {"system": "HIV-1 IN mutant R231K", "experiment": "single-round infectivity assay, R231K IN mutant", "protocol": "as §5, with “Figure 5 Antiviral potencies of the new compounds against IN with mutations in the […]. The” for “The”\nas §2, §3"}, "HIV-1 IN mutant S119R": {"system": "HIV-1 IN mutant S119R", "experiment": "single-round infectivity assay, S119R IN mutant", "protocol": "as §5, §2, §3"}, "HIV-1 IN mutant Y143R": {"system": "HIV-1 IN mutant Y143R", "experiment": "single-round infectivity assay, Y143R IN mutant", "protocol": "as §4, §2, §3"}, "HIV-1 IN mutant S230R": {"system": "HIV-1 IN mutant S230R", "experiment": "single-round infectivity assay, S230R IN mutant", "protocol": "as §5, with “Figure 5 Antiviral potencies of the new compounds against IN with mutations in the […]. The” for “The”\nas §2, §3"}, "[2]": {"conditions": "fold change in EC50, IN mutant versus WT HIV-1"}}, "data": [{"compound": "O=C(NCc1ccc(F)cc1F)c1c(O)c2c(CO)ccnc2n(O)c1=O", "note": "[5j, N-(2,4-Difluorobenzyl)-1,4-dihydroxy-5-(hydroxymethyl)-2-oxo-1,2-dihydro-1,8-naphthyridine-3-carboxamide]", "values": [{"measurement": "ratio of the EC50s (our compound relative to DTG) against Y143H", "setting": "HIV-1 IN mutant Y143H; EC50 compound / EC50 DTG", "result": 1.2}, {"measurement": "EC50", "setting": "HIV-1 IN mutant Y143H; Human immunodeficiency virus 1, read-out: EC50 values Y143H, single round infection, n = 4", "result": "2.6 ± 0.2", "unit": "nM"}, {"measurement": "FC Y143H", "setting": "HIV-1 IN mutant Y143H; [2]", "result": 0.4}, {"measurement": "ratio of the EC50s (our compound relative to DTG) against G140S/Q148H", "setting": "[1]; EC50 compound / EC50 DTG", "result": 2.5}, {"measurement": "EC50", "setting": "[1]; Human immunodeficiency virus 1, read-out: EC50 values G140S/Q148H", "result": "14.7 ± 1.1", "unit": "nM"}, {"measurement": "FC G140S/Q148H", "setting": "[1]; [2]", "result": 2.0}, {"measurement": "ratio of the EC50s (our compound relative to DTG) against P142A", "setting": "HIV-1 IN mutant P142A; EC50 compound / EC50 DTG", "result": 1.9}, {"measurement": "EC50", "setting": "HIV-1 IN mutant P142A; Human immunodeficiency virus 1, read-out: EC50 values P142A", "result": "4.7 ± 0.1", "unit": "nM"}, {"measurement": "ratio of the EC50s (our compound relative to DTG) against P142S", "setting": "HIV-1 IN mutant P142S; EC50 compound / EC50 DTG", "result": 1.6}, {"measurement": "EC50", "setting": "HIV-1 IN mutant P142S; Human immunodeficiency virus 1, read-out: EC50 values P142S", "result": "3.5 ± 0.5", "unit": "nM"}, {"measurement": "EC50", "setting": "WT HIV-1", "result": "7.3 ± 0.6", "unit": "nM"}, {"measurement": "ratio of the EC50s (our compound relative to DTG) against N117A", "setting": "HIV-1 IN mutant N117A; EC50 compound / EC50 DTG", "result": 26.8}, {"measurement": "EC50", "setting": "HIV-1 IN mutant N117A; Human immunodeficiency virus 1, read-out: EC50 values N117A", "result": "13.4 ± 1.5", "unit": "nM"}, {"measurement": "FC N117A", "setting": "HIV-1 IN mutant N117A; [2]", "result": 1.8}, {"measurement": "ratio of the EC50s (our compound relative to DTG) against R231G", "setting": "HIV-1 IN mutant R231G; EC50 compound / EC50 DTG", "result": 1.8}, {"measurement": "EC50", "setting": "HIV-1 IN mutant R231G; Human immunodeficiency virus 1, read-out: EC50 values R231G", "result": "2.5 ± 0.6", "unit": "nM"}, {"measurement": "FC R231G", "setting": "HIV-1 IN mutant R231G; [2]", "result": 0.3}, {"measurement": "ratio of the EC50s (our compound relative to DTG) against G118R", "setting": "HIV-1 IN mutant G118R; EC50 compound / EC50 DTG", "result": 2.3}, {"measurement": "EC50", "setting": "HIV-1 IN mutant G118R; Human immunodeficiency virus 1, read-out: EC50 values G118R", "result": "30 ± 5", "unit": "nM"}, {"measurement": "ratio of the EC50s (our compound relative to DTG) against Y143C", "setting": "HIV-1 IN mutant Y143C; EC50 compound / EC50 DTG", "result": 1.7}, {"measurement": "EC50", "setting": "HIV-1 IN mutant Y143C; Human immunodeficiency virus 1, read-out: EC50 values Y143C, single round infection, n = 4", "result": "2.4 ± 0.1", "unit": "nM"}, {"measurement": "FC Y143C", "setting": "HIV-1 IN mutant Y143C; [2]", "result": 0.3}, {"measurement": "ratio of the EC50s (our compound relative to DTG) against P142H", "setting": "HIV-1 IN mutant P142H; EC50 compound / EC50 DTG", "result": 1.3}, {"measurement": "EC50", "setting": "HIV-1 IN mutant P142H; Human immunodeficiency virus 1, read-out: EC50 values P142H", "result": "3.5 ± 0.1", "unit": "nM"}, {"measurement": "ratio of the EC50s (our compound relative to DTG) against N117H", "setting": "HIV-1 IN mutant N117H; EC50 compound / EC50 DTG", "result": 1.4}, {"measurement": "EC50", "setting": "HIV-1 IN mutant N117H; Human immunodeficiency virus 1, read-out: EC50 values N117H", "result": "3.4 ± 0.4", "unit": "nM"}, {"measurement": "FC N117H", "setting": "HIV-1 IN mutant N117H; [2]", "result": 0.5}, {"measurement": "ratio of the EC50s (our compound relative to DTG) against N155H", "setting": "HIV-1 IN mutant N155H; EC50 compound / EC50 DTG", "result": 4.1}, {"measurement": "EC50", "setting": "HIV-1 IN mutant N155H; Human immunodeficiency virus 1, read-out: EC50 values N155H", "result": "14.9 ± 3.6", "unit": "nM"}, {"measurement": "FC N155H", "setting": "HIV-1 IN mutant N155H; [2]", "result": 2.0}, {"measurement": "ratio of the EC50s (our compound relative to DTG) against R231K", "setting": "HIV-1 IN mutant R231K; EC50 compound / EC50 DTG", "result": 1.4}, {"measurement": "EC50", "setting": "HIV-1 IN mutant R231K; Human immunodeficiency virus 1, read-out: EC50 values R231K, single round infection, n = 4", "result": "5.9 ± 0.2", "unit": "nM"}, {"measurement": "FC R231K", "setting": "HIV-1 IN mutant R231K; [2]", "result": 0.8}, {"measurement": "ratio of the EC50s (our compound relative to DTG) against S119R", "setting": "HIV-1 IN mutant S119R; EC50 compound / EC50 DTG", "result": 3.0}, {"measurement": "EC50", "setting": "HIV-1 IN mutant S119R; Human immunodeficiency virus 1, read-out: EC50 values S119R", "result": "7 ± 0.2", "unit": "nM"}, {"measurement": "FC S119R", "setting": "HIV-1 IN mutant S119R; [2]", "result": 1.0}, {"measurement": "ratio of the EC50s (our compound relative to DTG) against Y143R", "setting": "HIV-1 IN mutant Y143R; EC50 compound / EC50 DTG", "result": 0.6}, {"measurement": "EC50", "setting": "HIV-1 IN mutant Y143R; Human immunodeficiency virus 1, read-out: EC50 values Y143R", "result": "2.6 ± 0.4", "unit": "nM"}, {"measurement": "FC Y143R", "setting": "HIV-1 IN mutant Y143R; [2]", "result": 0.4}, {"measurement": "ratio of the EC50s (our compound relative to DTG) against S230R", "setting": "HIV-1 IN mutant S230R; EC50 compound / EC50 DTG", "result": 1.7}, {"measurement": "EC50", "setting": "HIV-1 IN mutant S230R; Human immunodeficiency virus 1, read-out: EC50 values S230R", "result": "7.7 ± 1", "unit": "nM"}, {"measurement": "FC S230R", "setting": "HIV-1 IN mutant S230R; [2]", "result": 1.1}]}]}
